Experimental data: PMC11527692, “Tailored biosynthesis of diosmin through reconstitution of the flavonoid pathway in Nicotiana benthamiana” (Frontiers in Plant Science, 2024)

Key:
Cs1,6RhaT = target: T1, Cs1,6RhaT (Citrus sinensis, UniProt A7ISD3); experiment: substrate feeding of E. coli expressing the GST fusion, UPLC-DAD-QToF/MS of product; assay type: cell-based; conditions: product diosmin; 100 μM substrate, 28 °C, 3 h; whole culture
T1 sequence (A7ISD3 1-475): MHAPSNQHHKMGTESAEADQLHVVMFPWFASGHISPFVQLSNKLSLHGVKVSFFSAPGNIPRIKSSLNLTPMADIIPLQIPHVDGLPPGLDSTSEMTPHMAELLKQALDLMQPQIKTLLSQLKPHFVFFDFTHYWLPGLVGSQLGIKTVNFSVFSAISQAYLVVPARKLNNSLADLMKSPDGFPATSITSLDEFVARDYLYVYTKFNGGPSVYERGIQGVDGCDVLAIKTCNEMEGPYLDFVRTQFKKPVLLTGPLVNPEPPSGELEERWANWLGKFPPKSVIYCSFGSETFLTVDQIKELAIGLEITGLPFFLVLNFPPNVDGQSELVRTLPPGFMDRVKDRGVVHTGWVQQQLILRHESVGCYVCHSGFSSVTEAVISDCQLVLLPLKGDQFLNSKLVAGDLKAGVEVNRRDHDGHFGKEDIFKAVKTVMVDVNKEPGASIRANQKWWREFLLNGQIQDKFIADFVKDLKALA

PaF4′OMT = target: T2, PaF4′OMT (Plagiochasma appendiculatum, UniProt A0A1X9Y2Y6); experiment: substrate feeding of E. coli expressing the GST fusion, HPLC of product; assay type: cell-based; conditions: product diosmetin; 100 μM substrate (methods name diosmetin, results name luteolin), 28 °C, 3 h; whole culture
T2 sequence (A0A1X9Y2Y6 1-391): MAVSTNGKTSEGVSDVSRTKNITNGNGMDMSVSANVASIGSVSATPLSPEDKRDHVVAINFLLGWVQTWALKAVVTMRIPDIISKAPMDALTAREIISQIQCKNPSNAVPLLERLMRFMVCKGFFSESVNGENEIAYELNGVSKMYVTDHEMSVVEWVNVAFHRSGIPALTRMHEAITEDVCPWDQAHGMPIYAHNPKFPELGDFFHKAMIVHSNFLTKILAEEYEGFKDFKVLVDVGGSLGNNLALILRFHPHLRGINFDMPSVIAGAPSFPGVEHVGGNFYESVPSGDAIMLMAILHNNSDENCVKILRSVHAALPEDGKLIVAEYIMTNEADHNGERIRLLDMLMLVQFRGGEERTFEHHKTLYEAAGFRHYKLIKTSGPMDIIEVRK

SMILES	substrate feeding of E. coli expressing the GST fusion, UPLC-DAD-QToF/MS of prod (Cs1,6RhaT)	substrate feeding of E. coli expressing the GST fusion, HPLC of product (PaF4′OMT)
COc1ccc(-c2cc(=O)c3c(O)cc(O[C@@H]4O[C@H](CO)[C@@H](O)[C@H](O)[C@H]4O)cc3o2)cc1O [diosmetin 7-O-β-D-glucopyranoside]	the cells expressing Cs1,6RhaT produced the most diosmin	
O=c1cc(-c2ccc(O)c(O)c2)oc2cc(O)cc(O)c12 [luteolin]		PaF4′OMT produced the most diosmetin from luteolin
